Test results taken from publication PMC4104029, “Mechanism of Action of Compound-13: An α1-Selective Small Molecule Activator of AMPK” (Chemistry & Biology, 2014).

How the values were obtained:
[1] = target: T1, AMPK α2/α1 CAT β1γ1 (Homo sapiens, UniProt P54619+P54646, A116S/A126G/A242I/C200S/E112D/E217D/E235Q/E34K/F89I/G228D/H108N/I233T/I32V/K62R/L254M/M114K/M246K/Q36E/R227C/R239P/T243S/T87S/V111L/V17I/V230I); test: Chimeric AMPK complex activation assay; format: biochemical; conditions: complex expressed in E. coli; read-out: EC50, allosteric activation
T1 construct: 6×His (N); made in house; host or cells: E. coli (tricistronic pET15-b construct)
Description: (§1) Figure 3 Regulatory Elements within the α-Linker Determine the Isoform Specificity of C2 (A) Diagram illustrating the domain organization of the AMPKα subunit with a global pairwise alignment of a section of the α-linker of human AMPKα1 (Q13131) and AMPKα2 (P54646). Regulatory elements in the α-linker are highlighted, including the α-hook as originally defined by [Xiao et al. (2011)] (pink) and the reassigned sequence (also known as α-RIM2) shaded in orange. The secondary structure for α1 is derived from PDB ID 2Y94. The table summarizes the sequences of the α1/α2 chimeras produced to examine the role of various structural elements in the activation of α2β1γ1 complexes by C2. (B–E) Human AMPKα1/α2 chimeras (defined in A) were generated as complexes with β1γ1 in E. coli. Purified active complexes were assayed for the activation of phosphotransferase activity by AMP and C2, as described in Figure 1. Results (line graphs) are expressed as the fold increase in activity relative to reactions performed in the absence of compound and represent the mean ± SD of three independent experiments. Complexes were also assayed for protection against dephosphorylation and inactivation by PP2Cα, as described in Figures 2C and 2D. Results (bar charts) are expressed as the mean (percentage of control) ± SD of three independent experiments. Representative blots of pT172 and total AMPKα are shown below the bar charts. TEXT PRINTED IN THE PICTURE: (B) C2: AMPK211 - α2/α1 CAT: EC50: ND | (B) AMP: AMPK211 - α2/α1 CAT: EC50: 1.3 ± 0.2 μM | (C) C2: AMPK211 - α2/α1 REG: EC50: 0.009 ± 0.0006 μM | (C) AMP: AMPK211 - α2/α1 REG: EC50: 3.1 ± 0.3 μM | (D) C2: AMPK211 - α2/α1 HOOK: EC50: ND | (D) AMP: AMPK211 - α2/α1 HOOK: EC50: 1.4 ± 0.2 μM | (E) C2: AMPK211 + α2/α1 LOOP: EC50: 0.013 ± 0.001 μM | (E) AMP: AMPK211 + α2/α1 LOOP: EC50: 2.7 ± 0.3 μM […]
(§2) AMPK phosphotransferase activity was assayed in reactions (50 μl) containing 50 mM HEPES, pH 7.4, 10 mM MgCl2, 0.1 mM EGTA, 1 mM DTT, 0.01% BRIJ-35, 100 μM [γ-^32P]ATP (∼250 CPM⋅pmol^−1) and 200 μM AMARA (AMARAASAAALARRR). Reactions were started by the addition of AMPK (5 mU), incubated for 20 min at 30°C and quenched by spotting onto P81 and immersion in 75 mM H3PO4. Washed filters were dried and [^32P] incorporation determined by Cherenkov counting. AMPK activity in cell extracts was determined by immunoprecipitation with AMPKα1 or AMPKα2 antibodies from 50 μg material, as previously described ([Hunter et al., 2011]). […]

[2] = target: T2, AMPK α2/α1 HOOK β1γ1 (Homo sapiens, UniProt P54619+P54646, A386E/C382H/K379R/P383T); test: Chimeric AMPK complex activation assay; format: biochemical; conditions: complex expressed in E. coli; read-out: EC50, allosteric activation
T2 construct: 6×His (N); made in house; host or cells: E. coli (tricistronic pET15-b construct)
Description: as §1, §2

[3] = system: LKB1−/− mouse embryonic fibroblasts; test: AMPK and ACC phosphorylation in LKB1-null fibroblasts; format: cell-based; conditions: 1 hr; AICAR 2 mM
Experimental: AICAR (0.5 mM) was included as a positive control. Cell lysates were analyzed using western blotting with the indicated antibodies. (B) AMPKα1 or AMPKα2 complexes were immunoprecipitated from hepatocyte extracts prepared as described in (A) and assayed for kinase activity using 0.2 mM AMARA and 0.1 mM ATP. Results are expressed as the mean Pi incorporated in picomoles per minute-milligram ± SD. (C) Hepatocytes were stimulated with 30 μM C13 for the indicated times prior to harvesting, with AICAR (0.5 mM, 1 hr) as positive control. Lysates were analyzed using western blotting with the indicated antibodies. (D) Mouse hepatocytes were treated with the indicated compounds for 1 hr, and adenine nucleotide ratios were determined using capillary electrophoresis of perchloric acid extracts. […] Lysates were analyzed using western blotting with the indicated antibodies. (F) Wild-type (LKB1^+/+) or LKB1-null (LKB1^−/−) mouse embryonic fibroblasts were incubated with the indicated concentrations of C13 for 1 hr. AICAR (2 mM) was included as a positive control. Lysates were analyzed using western blotting with the indicated antibodies.

T1 sequence (P54619 whole entry, stated change not applied): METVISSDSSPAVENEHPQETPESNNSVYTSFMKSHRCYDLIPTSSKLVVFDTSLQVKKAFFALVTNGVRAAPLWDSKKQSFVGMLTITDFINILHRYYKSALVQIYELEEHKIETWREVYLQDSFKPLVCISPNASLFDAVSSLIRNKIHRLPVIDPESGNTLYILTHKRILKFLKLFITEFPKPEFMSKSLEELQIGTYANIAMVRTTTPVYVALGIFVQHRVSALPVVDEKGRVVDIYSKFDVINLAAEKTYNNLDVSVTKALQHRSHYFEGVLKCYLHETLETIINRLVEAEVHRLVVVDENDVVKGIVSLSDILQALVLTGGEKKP
T1 sequence (Q9Y478 whole entry, further chain): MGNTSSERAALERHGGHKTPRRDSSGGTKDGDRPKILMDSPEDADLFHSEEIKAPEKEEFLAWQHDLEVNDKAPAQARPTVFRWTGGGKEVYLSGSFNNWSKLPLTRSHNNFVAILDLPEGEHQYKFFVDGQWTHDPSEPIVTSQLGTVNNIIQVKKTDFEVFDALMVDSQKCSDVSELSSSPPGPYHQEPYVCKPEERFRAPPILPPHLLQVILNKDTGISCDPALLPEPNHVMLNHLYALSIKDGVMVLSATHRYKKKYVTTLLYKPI
T1 sequence (P54646 other isoform, or with tags, fused parts or gaps with the stated changes): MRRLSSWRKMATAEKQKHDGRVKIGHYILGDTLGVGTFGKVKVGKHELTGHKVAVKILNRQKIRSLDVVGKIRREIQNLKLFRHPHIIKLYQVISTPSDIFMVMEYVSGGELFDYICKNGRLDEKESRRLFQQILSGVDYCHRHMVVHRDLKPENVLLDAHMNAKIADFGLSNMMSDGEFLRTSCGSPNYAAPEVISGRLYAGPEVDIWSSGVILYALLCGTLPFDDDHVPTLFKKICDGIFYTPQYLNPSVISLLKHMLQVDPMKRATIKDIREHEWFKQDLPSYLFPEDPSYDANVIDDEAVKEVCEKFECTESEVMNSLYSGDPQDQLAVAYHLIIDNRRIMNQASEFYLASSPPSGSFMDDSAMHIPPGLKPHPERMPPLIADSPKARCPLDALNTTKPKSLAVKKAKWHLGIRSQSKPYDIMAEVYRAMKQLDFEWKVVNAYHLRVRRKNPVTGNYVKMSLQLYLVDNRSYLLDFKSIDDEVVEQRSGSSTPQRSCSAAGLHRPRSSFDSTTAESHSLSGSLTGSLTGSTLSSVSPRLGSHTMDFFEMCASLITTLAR
T2 sequence (P54646 whole entry K379R/C382H/P383T/A386E): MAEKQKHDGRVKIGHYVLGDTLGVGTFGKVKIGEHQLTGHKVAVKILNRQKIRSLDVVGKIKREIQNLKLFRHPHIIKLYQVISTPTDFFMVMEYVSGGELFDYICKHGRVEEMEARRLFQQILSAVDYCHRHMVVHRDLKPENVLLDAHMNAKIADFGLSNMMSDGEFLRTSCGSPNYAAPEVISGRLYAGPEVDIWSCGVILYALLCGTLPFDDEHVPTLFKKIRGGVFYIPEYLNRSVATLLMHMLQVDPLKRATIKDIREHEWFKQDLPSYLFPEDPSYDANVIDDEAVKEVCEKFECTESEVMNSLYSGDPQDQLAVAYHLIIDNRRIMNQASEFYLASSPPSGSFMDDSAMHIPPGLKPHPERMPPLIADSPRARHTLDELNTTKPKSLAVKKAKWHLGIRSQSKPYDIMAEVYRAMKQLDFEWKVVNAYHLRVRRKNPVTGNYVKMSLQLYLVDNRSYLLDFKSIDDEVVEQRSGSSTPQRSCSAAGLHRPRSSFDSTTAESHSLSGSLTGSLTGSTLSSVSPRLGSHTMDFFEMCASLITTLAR
T2 sequence (Q9Y478 whole entry partner): as the sequence (Q9Y478 whole entry, further chain) above
T2 sequence (P54619 whole entry): as the sequence (P54619 whole entry, stated change not applied) above

| SMILES | EC50 [1] [nM] | EC50 [2] [nM] | compound-induced phosphorylation of AMPK and ACC [3] |
| --- | --- | --- | --- |
| Nc1ncnc2c1ncn2[C@@H]1O[C@H](COP(=O)(O)O)[C@@H](O)[C@H]1O [AMP, reference compound] | 1300 ± 200 | 1400 ± 200 |  |
| CC(C)C(=O)OCOP(=O)(OCOC(=O)C(C)C)c1ccc(C2=NOC(=O)C2)o1 [Compound C13] |  |  | abolished |
